Measured values taken from article PMC11945486, “TAS1R2/TAS1R3 Single-Nucleotide Polymorphisms Affect Sweet Taste Receptor Activation by Sweeteners: The SWEET Project” (Nutrients, 2025).

Molecular target: T1, human TAS1R2-I486V (subunit alone) (Homo sapiens, UniProt Q8TE23, I486V)
T1 construct: expressed in transfected cells; host or cells: HEK293T-Gα16gust44
T1 sequence (Q8TE23 20-839 I486V): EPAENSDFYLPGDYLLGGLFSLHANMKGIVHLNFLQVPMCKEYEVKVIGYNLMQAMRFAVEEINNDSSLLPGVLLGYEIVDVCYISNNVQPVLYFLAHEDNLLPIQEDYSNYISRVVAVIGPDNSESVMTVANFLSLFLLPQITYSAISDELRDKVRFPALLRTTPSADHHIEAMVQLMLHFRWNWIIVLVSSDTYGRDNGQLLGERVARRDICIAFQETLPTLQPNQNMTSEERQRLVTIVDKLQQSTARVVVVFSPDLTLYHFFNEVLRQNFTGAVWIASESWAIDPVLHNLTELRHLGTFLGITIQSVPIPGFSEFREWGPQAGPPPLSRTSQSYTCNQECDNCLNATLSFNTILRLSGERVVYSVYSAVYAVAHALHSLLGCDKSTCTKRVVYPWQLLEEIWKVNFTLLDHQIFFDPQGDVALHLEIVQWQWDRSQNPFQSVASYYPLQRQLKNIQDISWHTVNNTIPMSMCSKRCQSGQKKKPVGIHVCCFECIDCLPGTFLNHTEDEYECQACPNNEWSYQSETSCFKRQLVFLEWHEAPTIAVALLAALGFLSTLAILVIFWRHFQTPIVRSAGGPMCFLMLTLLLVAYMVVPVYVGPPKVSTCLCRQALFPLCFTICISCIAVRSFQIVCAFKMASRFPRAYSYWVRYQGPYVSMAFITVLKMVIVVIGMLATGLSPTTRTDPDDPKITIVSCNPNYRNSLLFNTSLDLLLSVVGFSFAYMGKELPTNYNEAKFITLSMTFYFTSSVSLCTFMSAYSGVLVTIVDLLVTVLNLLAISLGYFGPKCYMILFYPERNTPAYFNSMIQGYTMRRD
Assay: Calcium mobilisation assay, TAS1R2-I486V subunit alone
Assay type: cell-based
Excerpt: The coding sequences for TAS1R2 and TAS1R3 were commercially synthesised, and the human codon was optimised for expression in human cells. The coding sequences of human TAS1R2 and TAS1R3 were subcloned and inserted into the mammalian expression vectors pcDNA6/myc-HisA and pcDNA4/myc-HisA (Invitrogen; Thermo Fisher Scientific; Illkirch, France) between the EcoRI and NotI restriction sites, generating the plasmids pcDNA6-TAS1R2 and pcDNA4-TAS1R3, respectively. To increase protein expression in mammalian cells, an upstream start codon was used, which was a sequence called MAX, corresponding to the QBI SP163 element also described in pcDNA4-HisMax (Invitrogen; Thermo Fisher Scientific; Illkirch, France). To measure the expression level of the receptor by immunohistochemistry, we used the FLAG sequence ([…]) in the C-terminal position, which encodes the FLAG tag epitope. […]
The HEK293T cells were kindly provided by Jay P. Slack (Givaudan Flavors Corporation; Cincinnati, OH, USA). […] The fluorescence intensity was measured for 90 s (excitation 488 nm, emission 510 nm) in an automated fluorometric FlexStation®3 Multi-Mode microplate reader (Molecular Devices; San Jose, CA, USA). […] The Ca^2+ changes were expressed as fractional changes in fluorescent light intensity: ΔF/F = (F − F0)/F0, where F was the fluorescent light intensity at each point, and F0 was the value of emitted fluorescent light prior to stimulus application. To calculate dose–response relationships, the changes in fluorescence upon stimulus application were averaged, mock-subtracted and baseline-corrected. […] The half-maximal effective concentrations (EC50 values) and maximal signal amplitudes were calculated using SigmaPlot software (version 15.0) (Systat Software; San Jose, CA, USA).
For in vitro calcium mobilisation assay performed on hTAS1R2-SNPs, hTAS1R3-SNPs and mTAS1R3-I60T, 6 to 7 concentrations were tested for each sweet compound, plus buffer alone. All concentration–receptor combinations were measured in duplicate, and each experiment was repeated at least 4 times (8 wells/concentration). […]

For C=C(C)[C@@H]1CC=C(/C=N/O)CC1 [Perillartine, perillartine], the EC50 was 124 ± 14.1 µM, the “R1 = Variant EC50/WT EC50” value was 1.4 and the “Max ΔF/F0” value (maximal signal amplitude) was 0.39 ± 0.02.
